Test: Stability in mammalian liver microsomes (Example D)
Type: in vitro ADME
Settings: human liver microsomes 0.5 mg/mL, 0.5 μM compound, 37° C.; scaled from in vitro half-life (Obach method); linker comparators
Protocol: Compounds of Formula I were assessed for their stability in mammalian liver microsomes. A compound of Formula I (0.5 μM) was incubated with pooled mixed gender human liver microsomes (HLM) (0.5 mg/mL total protein) at 37° C. in the presence of an NADPH-generating system containing 50 mM, pH 7.4 potassium phosphate buffer, 3 mM magnesium chloride, 1 mM EDTA, 1 mM NADP, 5 mM glusose-6-phosphate, and 1 Unit/mL glucose-6-phosphate dehydrogenase. All concentrations were relative to the final incubation volume of 125 μL. Incubations were conducted at 37° C. for 0, 5, 10, 20, 40 and 60 minutes in a water bath and terminated by rapid mixing with 150 μL of ice-cold acetonitrile containing internal standard, and precipitated proteins were removed by centrifugation prior to LC-MS/MS analysis. Aliquots of the resulting supernatant fractions were analyzed by LC-MS/MS monitoring for depletion of parent compound. The resultant peak area ratio versus time data was fitted to a non-linear regression using XLfit Scientific Curve Fitting Software (IDBS Ltd., Surrey, UK) and half-life was calculated from the slope. Pharmacokinetic parameters were predicted using the method described by Obach et al (J. Pharmcol. Exp. Ther. 1997; 283:46.58). Briefly, values for intrinsic clearance were calculated from the in vitro half-life data and were then scaled to represent the clearance expected in the entire animal (human). Additional values calculated included predicted extraction ratio and predicted maximum bioavailability. For example, the O-linker has better metabolic stability relative to the methyl linker or the —CH2O-linker, as shown by the following comparators

| Compound | Metabolic stability - predicted systemic clearance |
| --- | --- |
| Cc1cc(-c2cc(Oc3ccc4c(cnn4C)c3)ccn2)ccc1C(N)=O [drawing 283] | Metabolic stability - predicted systemic clearance (example D, above) is 8.0 ml/min/kg |
| Cc1cc(-c2cc(COc3ccc4c(cnn4C)c3)ccn2)ccc1C(N)=O | Metabolic stability - predicted systemic clearance (example D, above) is 12.3 ml/min/kg |
| Cc1cc(-c2cc(Oc3ccc4cnn(C)c4c3)ccn2)ccc1C(N)=O [drawing 281] | Metabolic stability - predicted systemic clearance (example D, above) is 3.6 ml/min/kg |
| Cc1cc(-c2cc(Cc3ccc4cnn(C)c4c3)ccn2)ccc1C(N)=O | Metabolic stability - predicted systemic clearance (example D, above) is 11.3 ml/min/kg |

Reference: US20260167615A1, “COMPOUNDS AND COMPOSITIONS AS GPR52 MODULATORS” (Neurocrine Biosciences, Inc., priority 2022, published 2026)
